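Cells were grown in 96-well plates and exposed to each compound for 48 hours at five concentrations; endpoints were interpolated linearly between bracketing concentrations, or set to the highest concentration if not reached. GI50 is the concentration that inhibits growth by half.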 Activity calls are given as the source filed them. No stated cut-off is given here; in the data, active = GI50 up to about 1.1 µM and inactive = higher.
Experiments:
Test in all cases: inhibition of tumour cell growth, NCI panel, 48 h
[1] = tested on: A549
[2] = tested on: HCC 2998
[3] = tested on: 786-0
[4] = tested on: NCI-H522
[5] = tested on: T47D
[6] = tested on: IGROV-1
[7] = tested on: HL-60
[8] = tested on: SK-MEL-28
[9] = tested on: SNB-19
[10] = tested on: SF-268
[11] = tested on: SR
[12] = tested on: PC-3
[13] = tested on: ACHN
[14] = tested on: TK-10
[15] = tested on: MDA-N
[16] = tested on: OVCAR-5
[17] = tested on: RPMI-8226
[18] = tested on: Hs-578T
[19] = tested on: KM12
[20] = tested on: OVCAR-4
[21] = tested on: EKVX
[22] = tested on: OVCAR-8
[23] = tested on: NCI-H460
[24] = tested on: NCI-H226
[25] = tested on: DU-145
[26] = tested on: COLO 205
[27] = tested on: K562
[28] = tested on: SF-295
[29] = tested on: SW-620
[30] = tested on: SK-OV-3
[31] = tested on: SK-MEL-5
[32] = tested on: HCT-15
[33] = tested on: MOLT-4
[34] = tested on: NCI-H23
[35] = tested on: LOX IMVI
[36] = tested on: HOP-92
[37] = tested on: UACC-62
[38] = tested on: MCF7
[39] = tested on: MDA-MB-435
[40] = tested on: SN12C
[41] = tested on: CCRF-CEM
[42] = tested on: HOP-62
[43] = tested on: NCI/ADR-RES
[44] = tested on: UO-31
[45] = tested on: HCT-116
[46] = tested on: UACC-257
[47] = tested on: SNB-75
[48] = tested on: CAKI-1
[49] = tested on: RXF 393
[50] = tested on: A498
[51] = tested on: Malme-3M
[52] = tested on: M14
[53] = tested on: OVCAR-3
[54] = tested on: SF-539
[55] = tested on: MDA-MB-231
[56] = tested on: U-251
[57] = tested on: BT-549
[58] = tested on: HT-29

Question: For CC(C)C1CSC2N1C(=O)C2(OCc1ccccc1)C1CC1 (stereo not drawn), which GI50 [1] is on record?
Answer: > 100 µM (inactive)

Question: And the GI50 [2]?
Answer: > 100 µM (inactive)

Question: What about the GI50 [3] of the same molecule?
Answer: > 100 µM (inactive)

Question: What about the GI50 [4] of the same molecule?
Answer: > 100 µM (inactive)

Question: What about the GI50 [5] of the same molecule?
Answer: 97.5 µM (inactive)

Question: What about the GI50 [6] of the same molecule?
Answer: > 100 µM (inactive)

Question: And the GI50 [7]?
Answer: 73.6 µM (inactive)

Question: What about the GI50 [8] of the same molecule?
Answer: > 100 µM (inactive)

Question: And the GI50 [9]?
Answer: > 100 µM (inactive)

Question: And the GI50 [10]?
Answer: > 100 µM (inactive)

Question: What about the GI50 [11] of the same molecule?
Answer: > 100 µM (inactive)

Question: And the GI50 [12]?
Answer: 69 µM (inactive)

Question: And the GI50 [13]?
Answer: > 100 µM (inactive)

Question: What about the GI50 [14] of the same molecule?
Answer: > 100 µM (inactive)

Question: And the GI50 [15]?
Answer: > 100 µM (inactive)

Question: What about the GI50 [16] of the same molecule?
Answer: > 100 µM (inactive)

Question: What about the GI50 [17] of the same molecule?
Answer: 89.1 µM (inactive)

Question: What about the GI50 [18] of the same molecule?
Answer: > 100 µM (inactive)

Question: What about the GI50 [19] of the same molecule?
Answer: > 100 µM (inactive)

Question: And the GI50 [20]?
Answer: > 100 µM (inactive)

Question: What about the GI50 [21] of the same molecule?
Answer: > 100 µM (inactive)

Question: And the GI50 [22]?
Answer: > 100 µM (inactive)

Question: And the GI50 [23]?
Answer: > 100 µM (inactive)

Question: And the GI50 [24]?
Answer: > 100 µM (inactive)

Question: And the GI50 [25]?
Answer: > 100 µM (inactive)

Question: What about the GI50 [26] of the same molecule?
Answer: > 100 µM (inactive)

Question: What about the GI50 [27] of the same molecule?
Answer: 67.8 µM (inactive)

Question: What about the GI50 [28] of the same molecule?
Answer: > 100 µM (inactive)

Question: And the GI50 [29]?
Answer: > 100 µM (inactive)

Question: And the GI50 [30]?
Answer: > 100 µM (inactive)

Question: And the GI50 [31]?
Answer: > 100 µM (inactive)

Question: And the GI50 [32]?
Answer: > 100 µM

Question: And the GI50 [33]?
Answer: 97.1 µM (inactive)

Question: And the GI50 [34]?
Answer: > 100 µM (inactive)

Question: And the GI50 [35]?
Answer: > 100 µM (inactive)

Question: What about the GI50 [36] of the same molecule?
Answer: > 100 µM (inactive)

Question: What about the GI50 [37] of the same molecule?
Answer: > 100 µM (inactive)

Question: What about the GI50 [38] of the same molecule?
Answer: > 100 µM (inactive)

Question: What about the GI50 [39] of the same molecule?
Answer: > 100 µM (inactive)

Question: And the GI50 [40]?
Answer: > 100 µM (inactive)

Question: And the GI50 [41]?
Answer: > 100 µM (inactive)

Question: And the GI50 [42]?
Answer: > 100 µM (inactive)

Question: And the GI50 [43]?
Answer: 63.4 µM (inactive)

Question: And the GI50 [44]?
Answer: > 100 µM (inactive)

Question: And the GI50 [45]?
Answer: > 100 µM (inactive)

Question: And the GI50 [46]?
Answer: > 100 µM (inactive)

Question: And the GI50 [47]?
Answer: 97.7 µM (inactive)

Question: What about the GI50 [48] of the same molecule?
Answer: > 100 µM (inactive)

Question: And the GI50 [49]?
Answer: > 100 µM (inactive)

Question: And the GI50 [50]?
Answer: 51.3 µM (inactive)

Question: What about the GI50 [51] of the same molecule?
Answer: > 100 µM (inactive)

Question: And the GI50 [52]?
Answer: > 100 µM (inactive)

Question: What about the GI50 [53] of the same molecule?
Answer: > 100 µM (inactive)

Question: And the GI50 [54]?
Answer: > 100 µM (inactive)

Question: And the GI50 [55]?
Answer: > 100 µM (inactive)

Question: What about the GI50 [56] of the same molecule?
Answer: > 100 µM (inactive)

Question: And the GI50 [57]?
Answer: > 100 µM (inactive)

Question: What about the GI50 [58] of the same molecule?
Answer: > 100 µM (inactive)
